Measured values from PMC7403315, “Cyclic peptide FXII inhibitor provides safe anticoagulation in a thrombosis model and in artificial lungs” (Nature Communications, 2020).
Read-outs that look alike come from different tables or passages of the source. Starred links: 1 amine or outer side, 2 acyl side, 3 side chain; linkers in the order of their positions; H or OH if unused. Positions of bridges follow the written chain, without caps; N, C: chain ends. Non-standard residues stand in square brackets, D forms with d. Residues, ends and D or L forms follow the SMILES beside them. TATA = O=C(CC[*:1])N1CN(C(=O)CC[*:2])CN(C(=O)CC[*:3])C1; Phe(4-F) = N[C@@H](Cc1ccc(F)cc1)C(=O)O; β3hR = N=C(N)NCCC[C@H](N)CC(=O)O

Molecular target: T1, recombinant pig FXIIa (Sus scrofa, UniProt O97507)
T1 construct: of FXII into a heavy chain (HC) and a light chain (LC); made in house; host or cells: CHO cells
T1 sequence (O97507 20-616): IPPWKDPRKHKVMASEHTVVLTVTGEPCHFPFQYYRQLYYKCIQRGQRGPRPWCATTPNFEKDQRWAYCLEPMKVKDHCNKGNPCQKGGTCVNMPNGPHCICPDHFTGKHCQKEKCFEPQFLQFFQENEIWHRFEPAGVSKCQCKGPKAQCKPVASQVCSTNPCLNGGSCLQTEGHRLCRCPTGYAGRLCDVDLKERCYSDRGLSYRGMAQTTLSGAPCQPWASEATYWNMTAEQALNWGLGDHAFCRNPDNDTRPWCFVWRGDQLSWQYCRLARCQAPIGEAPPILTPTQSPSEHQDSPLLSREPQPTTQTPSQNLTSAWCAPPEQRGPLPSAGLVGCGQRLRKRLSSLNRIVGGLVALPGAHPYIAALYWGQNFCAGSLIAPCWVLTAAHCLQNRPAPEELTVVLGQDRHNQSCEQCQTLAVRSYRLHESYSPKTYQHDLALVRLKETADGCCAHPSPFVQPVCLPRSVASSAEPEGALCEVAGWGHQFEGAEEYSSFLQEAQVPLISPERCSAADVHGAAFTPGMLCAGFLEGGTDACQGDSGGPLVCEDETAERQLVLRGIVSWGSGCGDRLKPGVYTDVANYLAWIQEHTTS
Assay: Inhibition of recombinant FXIIa (rFXIIa)
Format: biochemical
Description: The protein sequences for human, rabbit and pig factor XII were taken from the following database entries: human FXII: UniProtKB - P00748; rabbit FXII: NCBI RefSeq - XP_008253687.1; pig FXII: UniProtKB - O97507. The sequences are shown in the Supplementary Methods. DNA encoding the full-length proteins were ordered from Eurofins Genomics. The codons in these sequences were optimized for mammalian expression using the codon optimization tool from Integrated DNA Technologies (IDT). In addition to the FXII gene, the ordered DNA sequences encode a C-terminal GSGS-linker, a His6-tag and a stop codon, and they are flanked by NheI (GCTAGC) and a HindIII (AAGCTT) restriction sites. The entire DNA sequences are provided in the supporting materials. The DNA sequences were cloned into the pEXPR-IBA42 vector downstream of a BM40 signal sequence for secreted expression in mammalian cells. The ligated vector was transformed into DH5 alpha electrocompetent E. coli cells. Plasmid DNA from single clones was sequenced by Sanger sequencing.
1.5 mg plasmid DNA was transfected into 500 ml CHO cells (Thermo Fisher Scientific) in cell suspension culture using polyethylenimine (PEI). Cells were incubated for seven days at 37 °C, 5% CO2 under shaking conditions. The cells were removed by centrifugation and the secreted protein was purified from the supernatant using a nickel-charged immobilized metal affinity chromatography (IMAC) column (5 ml HisTrap FF Crude, GE Healthcare). The column was equilibrated with buffer containing 15 mM imidazole, 100 mM NaCl, 20 mM Tris-HCl, pH 7.4. The pH of the cell culture supernatant was adjusted to 8.0 using NaOH. The supernatant was run through the column at a flow of 5 ml per min. The column was washed with 20 column volumes of equilibration buffer at a flow of 5 ml per min. The protein was eluted with 500 mM imidazole, 100 mM NaCl, 20 mM Tris-HCl, pH 7.4 at a flow of 5 ml per min. The buffer was subsequently exchanged to 100 mM NaCl, 20 mM Tris-HCl, pH 7.4 by three iterative steps of 10-fold dilution and 10-fold concentration using a 10,000 MWCO centrifugal concentrator. The concentration was determined by measuring absorption at 280 nm (ε = 100,000). For the activation of recombinant FXII, 10 μg protein was diluted to a total volume of 10 μl 100 mM NaCl, 20 mM Tris-HCl, pH 7.4 and further diluted with 10 μl of 2-fold concentrated assay buffer (300 mM NaCl, 20 mM MgCl2, 2 mM CaCl2, 20 mM Tris-HCl, 0.02% (v/v) Triton-X100, pH 7.4). Dextran sulfate 500 kDa (DXS500) was added to a final concentration of 0.2 μg μl^−1 and incubated for 1 hour at 37 °C. 5 μg protein was analyzed by SDS-PAGE under reducing conditions.
Protease inhibition assays
The inhibitory activity of peptides was determined by measuring the residual protease activity with a fluorogenic substrate. The assay was performed in buffer containing 10 mM Tris-Cl, pH […]
1% (v/v) DMSO in a volume of 150 µl. FXIIa activity was measured with the fluorogenic substrate Boc-Gln-Gly-Arg-AMC (Bachem) at a final concentration of 50 µM. Mouse α-FXIIa (Molecular Innovations cat # MFXIIA) and human β-FXIIa (Molecular Innovations cat # HFXIIAB) were used at final concentrations of 0.4 nM. The reaction was pipetted as follows: 50 µl of bicyclic peptide in assay buffer were added to 50 µl of FXIIa in assay buffer and incubated for 10 minutes at 25°C before 50 µl of 150 µM fluorogenic substrate in assay buffer were added to measure the residual protease activity with an Infinite M200Pro fluorescence plate reader (excitation at 368 nm, emission at 467 nm; Tecan) for a period of 30 minutes with a read every minute at 25°C. The Tecan software i-control (version 1.1) was used for data analysis. Stock solutions of 1 mM bicyclic peptide were prepared by either dissolving the unpurified cyclization reaction with water or by dissolving purified and lyophilized peptide in water. The bicyclic peptides were serially diluted two-fold using assay buffer. Sigmoidal curves were fitted to the […]

CC(C)C[C@@H]1NC(=O)[C@H](CCC(N)=O)NC(=O)[C@H](CCCNC(=N)N)NC(=O)[C@@H]2CSCCC(=O)N3CN(CN(C3)C(=O)CCSC[C@H](NC(=O)[C@@H](N)CCCNC(=N)N)C(=O)N[C@@H](Cc3ccccc3)C(=O)N[C@@H](CCCNC(=N)N)C(=O)N[C@@H](CC(C)C)C(=O)N3CCC[C@H]3C(=O)N2)C(=O)CCSC[C@@H](C(=O)N[C@@H](CCCNC(=N)N)C(N)=O)NC(=O)[C@H](CCCNC(=N)N)NC1=O [FXII618]
remaining activity at 0.00195312 µM (Recombinant pig FXII, peptide 1.95312 nM, individual plates, read-out: Residual activity (%)): 102%
remaining activity at 0.00390625 µM (Recombinant pig FXII, peptide 3.90625 nM, individual plates, read-out: Residual activity (%)): 103%
remaining activity at 0.0078125 µM (Recombinant pig FXII, peptide 7.8125 nM, individual plates, read-out: Residual activity (%)): 95.8%
remaining activity at 0.015625 µM (Recombinant pig FXII, peptide 15.625 nM, individual plates, read-out: Residual activity (%)): 92.8%
remaining activity at 0.03125 µM (Recombinant pig FXII, peptide 31.25 nM, individual plates, read-out: Residual activity (%)): 87.6%
remaining activity at 0.0625 µM (Recombinant pig FXII, peptide 62.5 nM, individual plates, read-out: Residual activity (%)): 82.2%
remaining activity at 0.125 µM (Recombinant pig FXII, peptide 125 nM, individual plates, read-out: Residual activity (%)): 71%
remaining activity at […] (Recombinant pig FXII, peptide 250 nM, individual plates, read-out: Residual activity (%)): 54.9%
remaining activity at 0.5 µM (Recombinant pig FXII, peptide 500 nM, individual plates, read-out: Residual activity (%)): 38%
remaining activity at 1 µM (Recombinant pig FXII, peptide 1000 nM, individual plates, read-out: Residual activity (%)): 21.5%
remaining activity at 2 µM (Recombinant pig FXII, peptide 2000 nM, individual plates, read-out: Residual activity (%)): 14.6%

CC(C)C[C@@H]1NC(=O)[C@H](CCC(N)=O)NC(=O)[C@H](Cc2c[nH]cn2)NC(=O)[C@@H]2CSCCC(=O)N3CN(CN(C3)C(=O)CCSC[C@H](NC(=O)[C@@H](CO)NC(=O)[C@H](N)CCCNC(=N)N)C(=O)N[C@@H](Cc3ccc(F)cc3)C(=O)N[C@@H](CCCNC(=N)N)C(=O)N[C@@H](CC(C)C)C(=O)N3CCC[C@H]3C(=O)N2)C(=O)CCSC[C@@H](C(N)=O)NC(=O)C[C@H](CCCNC(=N)N)NC1=O [FXII900] (H-[dR][dS]C[Phe(4-F)]RLPCHQL[β3hR]C-NH2; linker 3-8-13 via TATA)
Ki: 17.4 ± 1.4 nM
remaining activity at 0.0005 µM (read-out: Residual activity (%), Recombinant pig FXII, peptide 0.5 nM, individual plates): 99.6%
remaining activity at 0.001 µM (read-out: Residual activity (%), Recombinant pig FXII, peptide 1 nM, individual plates): 93.5%
remaining activity at 0.002 µM (read-out: Residual activity (%), Recombinant pig FXII, peptide 2 nM, individual plates): 91.1%
remaining activity at 0.004 µM (read-out: Residual activity (%), Recombinant pig FXII, peptide 4 nM, individual plates): 83.3%
remaining activity at 0.008 µM (read-out: Residual activity (%), Recombinant pig FXII, peptide 8 nM, individual plates): 71.6%
remaining activity at […] (read-out: Residual activity (%), Recombinant pig FXII, peptide 16 nM, individual plates): 55.5%
remaining activity at […] (read-out: Residual activity (%), Recombinant pig FXII, peptide 32 nM, individual plates): 38.2%
remaining activity at 0.064 µM (read-out: Residual activity (%), Recombinant pig FXII, peptide 64 nM, individual plates): 23.5%
remaining activity at 0.128 µM (read-out: Residual activity (%), Recombinant pig FXII, peptide 128 nM, individual plates): 11.5%
remaining activity at 0.256 µM (read-out: Residual activity (%), Recombinant pig FXII, peptide 256 nM, individual plates): 7.16%
remaining activity at 0.512 µM (read-out: Residual activity (%), Recombinant pig FXII, peptide 512 nM, individual plates): 5.15%
